# According to patent publication US9499553B2 (CHUGAI SEIYAKU KABUSHIKI KAISHA, priority 2013, dated 2016):
# Where a name gives a salt, the structure may show the parent alone.
# Molecular target: T1, human NaPi-IIb (Homo sapiens, UniProt O95436)
# T1 construct: expressed in transfected cells
# T1 sequence (O95436 1-690): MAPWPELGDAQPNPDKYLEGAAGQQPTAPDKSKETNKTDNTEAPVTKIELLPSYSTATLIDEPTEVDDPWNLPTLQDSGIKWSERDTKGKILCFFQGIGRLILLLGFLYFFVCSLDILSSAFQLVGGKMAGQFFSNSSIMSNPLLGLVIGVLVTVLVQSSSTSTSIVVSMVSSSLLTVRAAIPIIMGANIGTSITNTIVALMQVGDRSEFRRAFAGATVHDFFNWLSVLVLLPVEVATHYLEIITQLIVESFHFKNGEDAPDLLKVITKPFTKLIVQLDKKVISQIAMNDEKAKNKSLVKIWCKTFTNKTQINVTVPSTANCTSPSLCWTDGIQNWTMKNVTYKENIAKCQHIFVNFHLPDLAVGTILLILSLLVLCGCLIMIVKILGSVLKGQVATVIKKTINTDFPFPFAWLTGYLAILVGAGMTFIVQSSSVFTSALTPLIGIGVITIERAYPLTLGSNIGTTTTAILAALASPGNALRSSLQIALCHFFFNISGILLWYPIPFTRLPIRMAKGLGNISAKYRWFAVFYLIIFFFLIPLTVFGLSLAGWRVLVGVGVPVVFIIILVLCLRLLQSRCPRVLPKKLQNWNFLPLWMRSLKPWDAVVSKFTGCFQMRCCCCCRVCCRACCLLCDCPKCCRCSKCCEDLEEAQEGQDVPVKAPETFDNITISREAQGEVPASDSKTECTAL
# Experiment: Inhibitory effect on 33PO4 uptake into human NaPi-IIb-expressing CHO cells
# Type: cell-based
# Settings: read-out: IC50
# Protocol: Test Example 2: Inhibitory Effect on PO4 Uptake into Human NaPi-IIb-Expressing Cell CHO cells were transfected with human NaPi-IIb expression plasmids, and a stably human NaPi-IIb-expressing cell line was obtained using G418. The human NaPi-IIb-expressing cells were inoculated to a 96-well plate and incubated overnight in a CO2 incubator. […] After a given time, a 1/20 volume of buffer A containing ^33PO4 was added thereto and reacted at room temperature. After washing with ice-cold buffer A, a liquid scintillator was added to each reaction mixture, and the amount of ^33PO4 uptake was measured using TopCount.
row,SMILES,IC50
1,C[C@]12CCCN1N(Cc1ccc(C#CCN3CCCC3=O)c(F)c1F)C(=O)C(C(=O)Nc1ccc(Br)c(F)c1)=C2O [Example 131],15.3 µM
2,C[C@]12CCCN1N(Cc1c(F)cc(C#CCN3CCOCC3)cc1F)C(=O)C(C(=O)Nc1ccc(C(F)(F)F)cc1-c1ccc(C(F)(F)F)nc1)=C2O [Example 132],5 µM
3,C[C@]12CCCN1N(Cc1ccc(C#CCN3CCOCC3=O)c(F)c1F)C(=O)C(C(=O)Nc1ccc(Br)c(F)c1)=C2O [Example 133],13.1 µM
4,COc1cccc(-c2cc(C(F)(F)F)ccc2NC(=O)C2=C(O)[C@@]3(C)CCCN3N(Cc3ccc(C#CCCO)c(F)c3F)C2=O)c1OC [Example 134],19.7 µM
5,COc1cccc(-c2cc(C(F)(F)F)ccc2NC(=O)C2=C(O)[C@@]3(C)CCCN3N(Cc3ccc(C#CCCCCO)c(F)c3F)C2=O)c1OC [Example 135],12.3 µM
6,COc1cccc(-c2cc(C(F)(F)F)ccc2NC(=O)C2=C(O)[C@@]3(C)CCCN3N(Cc3ccc(C#CCOCCOCCOCCO)c(F)c3F)C2=O)c1OC [Example 136],17.6 µM
7,COc1cccc(-c2cc(C(F)(F)F)ccc2NC(=O)C2=C(O)[C@@]3(C)CCCN3N(Cc3ccc(C#CCOCCO)c(F)c3F)C2=O)c1OC [Example 137],19.7 µM
8,COc1cccc(-c2cc(C(F)(F)F)ccc2NC(=O)C2=C(O)[C@@]3(C)CCCN3N(Cc3ccc(C#CCCCO)c(F)c3F)C2=O)c1OC [Example 138],11.9 µM
9,COc1cccc(-c2cc(C(F)(F)F)ccc2NC(=O)C2=C(O)[C@@]3(C)CCCN3N(Cc3ccc(C#CCOCCOCCO)c(F)c3F)C2=O)c1OC [Example 139],17 µM
10,C[C@]12CCCN1N(Cc1ccc(CCCOCCCO)c(F)c1F)C(=O)C(C(=O)Nc1ccc(C(F)(F)F)cc1-c1ccc(C(F)(F)F)nc1)=C2O [Example 141],7.8 µM
11,COc1cccc(-c2cc(C(F)(F)F)ccc2NC(=O)C2=C(O)[C@@]3(C)CCCN3N(Cc3ccc(CCCOCCOCCOCCO)c(F)c3F)C2=O)c1OC [Example 142],17.6 µM
12,C[C@]12CCCN1N(Cc1c(F)cc(C#CCCCCOC[C@H](O)CO)cc1F)C(=O)C(C(=O)Nc1ccc(C(F)(F)F)cc1-c1ccc(C(F)(F)F)nc1)=C2O [Example 143],6.7 µM
13,C[C@]12CCCN1N(Cc1c(F)cc(C#CCCOC[C@H](O)CO)cc1F)C(=O)C(C(=O)Nc1ccc(C(F)(F)F)cc1-c1ccc(C(F)(F)F)nc1)=C2O [Example 145],7.1 µM
14,"C[C@]12CCCN1N(Cc1c(Cl)cc(OCCN3CCOCC3)cc1Cl)C(=O)C(C(=O)Nc1cnc(C(F)(F)F)nc1-c1ccc(C(F)(F)F)nc1)=C2O [Example 146, (4aR)-1-[[2,6-Dichloro-4-(2-morpholin-4-ylethoxy)phenyl]methyl]-4-hydroxy-4a-methyl-2-oxo-N-[2-(trifluoromethyl)-4-[6-(trifluoromethyl)pyridin-3-yl]pyrimidin-5-yl]-6,7-dihydro-5H-pyrrolo[1,2-b]pyridazine-3-carboxamide hydrochloride]",10.2 µM
15,"C[C@]12CCCN1N(Cc1c(Cl)cc(OCCN3CCOCC3)cc1Cl)C(=O)C(C(=O)Nc1ccc(C(F)(F)F)nc1-c1ccc(C(F)(F)F)nc1)=C2O [Example 148, (4aR)-1-[[2,6-Dichloro-4-(2-morpholin-4-ylethoxy)phenyl]methyl]-4-hydroxy-4a-methyl-2-oxo-N-[6-(trifluoromethyl)-2-[6-(trifluoromethyl)pyridin-3-yl]pyridin-3-yl]-6,7-dihydro-5H-pyrrolo[1,2-b]pyridazine-3-carboxamide hydrochloride]",8.5 µM
16,"C[C@]12CCCN1N(Cc1ccc(OCCN3CCOCC3)c(Cl)c1)C(=O)C(C(=O)Nc1ccc(C(F)(F)F)cc1-c1ccc(C(F)(F)F)nc1)=C2O [Example 149, (4aR)-1-[[3-Chloro-4-(2-morpholin-4-ylethoxy)phenyl]methyl]-4-hydroxy-4a-methyl-2-oxo-N-[4-(trifluoromethyl)-2-[6-(trifluoromethyl)pyridin-3-yl]phenyl]-6,7-dihydro-5H-pyrrolo[1,2-b]pyridazine-3-carboxamide]",19.7 µM
17,COC(=O)COc1ccc(CN2C(=O)C(C(=O)Nc3ccc(C(F)(F)F)cc3-c3ccc(C(F)(F)F)nc3)=C(O)[C@@]3(C)CCCN23)c(F)c1F [Example 150],9 µM
18,"COc1cccc(-c2cc(C(F)(F)F)ccc2NC(=O)C2=C(O)[C@@]3(C)CCCN3N(Cc3ccc(OCc4ccncc4)c(F)c3F)C2=O)c1OC [Example 151, (4aR)-1-[[2,3-Difluoro-4-(pyridin-4-ylmethoxy)phenyl]methyl]-N-[2-(2,3-dimethoxyphenyl)-4-(trifluoromethyl)phenyl]-4-hydroxy-4a-methyl-2-oxo-6,7-dihydro-5H-pyrrolo[1,2-b]pyridazine-3-carboxamide]",8.4 µM

row,SMILES,IC50
1,C[C@]12CCCN1N(Cc1c(F)cc(OCCCCCOC[C@@H](O)CO)cc1F)C(=O)C(C(=O)Nc1ccc(C(F)(F)F)cc1-c1ccc(C(F)(F)F)nc1)=C2O [Example 153],6.2 µM
2,C[C@]12CCCN1N(Cc1c(F)cc(OCCCCCCOC[C@@H](O)CO)cc1F)C(=O)C(C(=O)Nc1ccc(C(F)(F)F)cc1-c1ccc(C(F)(F)F)nc1)=C2O [Example 154],2.5 µM
3,C[C@]12CCCN1N(Cc1c(F)cc(OCCCCCCOC[C@H](O)CO)cc1F)C(=O)C(C(=O)Nc1ccc(C(F)(F)F)cc1-c1ccc(C(F)(F)F)nc1)=C2O [Example 155],2.3 µM
4,COc1cccc(-c2cc(C(F)(F)F)ccc2NC(=O)C2=C(O)[C@@]3(C)CCCN3N(Cc3ccc(OC4CCOCC4)c(F)c3F)C2=O)c1OC [Example 158],12.8 µM
5,COc1cccc(-c2cc(C(F)(F)F)ccc2NC(=O)C2=C(O)[C@@]3(C)CCCN3N(Cc3ccc(OC[C@H]4CCCO4)c(F)c3F)C2=O)c1OC [Example 159],11.4 µM
6,C[C@]12CCCN1N(Cc1ccc(OC[C@H]3CCCO3)c(F)c1F)C(=O)C(C(=O)Nc1ccc(C(F)(F)F)cc1-c1ccc(C(F)(F)F)nc1)=C2O [Example 160],7.3 µM
7,C[C@]12CCCN1N(Cc1ccc(OCCN3CCOCC3)c(F)c1F)C(=O)C(C(=O)Nc1ccc(C(F)(F)F)cc1-c1ccc(C(F)(F)F)nc1)=C2O [Example 161],11.5 µM
8,C[C@]12CCCN1N(Cc1ccc(OCCCCCO)c(F)c1F)C(=O)C(C(=O)Nc1ccc(C(F)(F)F)cc1-c1cc(C(F)(F)F)ncn1)=C2O [Example 162],15.1 µM
9,"C[C@]12CCCN1N(Cc1ccc(SCCN3CCOCC3)c(F)c1F)C(=O)C(C(=O)Nc1ccc(C(F)(F)F)cc1-c1ccc(C(F)(F)F)nc1)=C2O [Example 163, (4aR)-1-[[2,3-Difluoro-4-(2-morpholin-4-ylethylsulfanyl)phenyl]methyl]-4-hydroxy-4a-methyl-2-oxo-N-[4-(trifluoromethyl)-2-[6-(trifluoromethyl)pyridin-3-yl]phenyl]-6,7-dihydro-5H-pyrrolo[1,2-b]pyridazine-3-carboxamide hydrochloride]",6.8 µM
10,"COC(=O)c1cc(F)c(CN2C(=O)C(C(=O)Nc3ccc(C(F)(F)F)cc3-c3ccc(C(F)(F)F)nc3)=C(O)[C@@]3(C)CCCN23)c(F)c1 [Example 165, Methyl 4-[[(4aR)-4-Hydroxy-4a-methyl-2-oxo-3-[[4-(trifluoromethyl)-2-[6-(trifluoromethyl)pyridin-3-yl]phenyl]carbamoyl]-6,7-dihydro-5H-pyrrolo[1,2-b]pyridazin-1-yl]methyl]-3,5-difluorobenzoate]",1.8 µM
11,"C[C@]12CCCN1N(Cc1ccc(Br)cc1F)C(=O)C(C(=O)Nc1cc(F)c(Br)c(F)c1)=C2O [Example 166, (4aR)—N-(4-Bromo-3,5-difluorophenyl)-1-[(4-bromo-2-fluorophenyl)methyl]-4-hydroxy-4a-methyl-2-oxo-6,7-dihydro-5H-pyrrolo[1,2-b]pyridazine-3-carboxamide]",10.5 µM
12,C[C@]12CCCN1N(Cc1cccc(OC(F)F)c1)C(=O)C(C(=O)Nc1ccc(C(F)(F)F)cc1-c1ccc(C(F)(F)F)nc1)=C2O [Example 167],4.3 µM
13,C[C@]12CCCN1N(Cc1ccccc1Cl)C(=O)C(C(=O)Nc1ccc(C(F)(F)F)cc1-c1ccc(C(F)(F)F)nc1)=C2O [Example 168],2.6 µM
14,C[C@]12CCCN1N(Cc1cccc(Cl)c1)C(=O)C(C(=O)Nc1ccc(C(F)(F)F)cc1-c1ccc(C(F)(F)F)nc1)=C2O [Example 169],2.6 µM
15,C[C@]12CCCN1N(Cc1ccc(F)c(F)c1)C(=O)C(C(=O)Nc1ccc(C(F)(F)F)cc1-c1ccc(C(F)(F)F)nc1)=C2O [Example 170],2.2 µM
16,C[C@]12CCCN1N(Cc1cc(F)cc(F)c1)C(=O)C(C(=O)Nc1ccc(C(F)(F)F)cc1-c1ccc(C(F)(F)F)nc1)=C2O [Example 171],2.2 µM
17,C[C@]12CCCN1N(Cc1cc(F)ccc1F)C(=O)C(C(=O)Nc1ccc(C(F)(F)F)cc1-c1ccc(C(F)(F)F)nc1)=C2O [Example 172],2.4 µM
18,C[C@]12CCCN1N(Cc1ccc(F)cc1F)C(=O)C(C(=O)Nc1ccc(C(F)(F)F)cc1-c1ccc(C(F)(F)F)nc1)=C2O [Example 173],1.9 µM
